The target of one assay is ErbB2 V777L (Homo sapiens (Human), UniProt P04626, V777L). Kind of assay: ErbB enzyme assay (CisBio HTRF-KinEASE-TK), ErbB2 V777L. The format is biochemical. In outline: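 HTRF KinEASE-TK tyrosine-kinase read-out of substrate phosphorylation after a final 1 h at ambient temperature, from the 655/620 nm emission ratio.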
Another assay concerns the target EGFR WT (Homo sapiens (Human), UniProt P00533). The assay is described as follows: ErbB enzyme assay (CisBio HTRF-KinEASE-TK), EGFR WT. Conditions: ATP at Km (25 μM), 1 h incubation. Format: biochemical. In outline:
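IC50 comes from a 4-parameter fit where the curve crosses 50 percent of control, using the 655/620 nm time-resolved fluorescence ratio with DMSO-only and pre-quenched references. Kinase reactions ran 1 h at ambient temperature before Sa-XL665/cryptate-antibody detection (1 h).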

Experimental findings from patent publication US20250129078A1, “ERBB2 INHIBITORS” (Cogent Biosciences, Inc., priority 2023, published 2025) are described below.

The term IC50 denotes the point on the concentration scale where inhibition reaches its midpoint. Lower therefore signals greater potency in that assay.

Chain of EGFR WT (P00533 25-1210): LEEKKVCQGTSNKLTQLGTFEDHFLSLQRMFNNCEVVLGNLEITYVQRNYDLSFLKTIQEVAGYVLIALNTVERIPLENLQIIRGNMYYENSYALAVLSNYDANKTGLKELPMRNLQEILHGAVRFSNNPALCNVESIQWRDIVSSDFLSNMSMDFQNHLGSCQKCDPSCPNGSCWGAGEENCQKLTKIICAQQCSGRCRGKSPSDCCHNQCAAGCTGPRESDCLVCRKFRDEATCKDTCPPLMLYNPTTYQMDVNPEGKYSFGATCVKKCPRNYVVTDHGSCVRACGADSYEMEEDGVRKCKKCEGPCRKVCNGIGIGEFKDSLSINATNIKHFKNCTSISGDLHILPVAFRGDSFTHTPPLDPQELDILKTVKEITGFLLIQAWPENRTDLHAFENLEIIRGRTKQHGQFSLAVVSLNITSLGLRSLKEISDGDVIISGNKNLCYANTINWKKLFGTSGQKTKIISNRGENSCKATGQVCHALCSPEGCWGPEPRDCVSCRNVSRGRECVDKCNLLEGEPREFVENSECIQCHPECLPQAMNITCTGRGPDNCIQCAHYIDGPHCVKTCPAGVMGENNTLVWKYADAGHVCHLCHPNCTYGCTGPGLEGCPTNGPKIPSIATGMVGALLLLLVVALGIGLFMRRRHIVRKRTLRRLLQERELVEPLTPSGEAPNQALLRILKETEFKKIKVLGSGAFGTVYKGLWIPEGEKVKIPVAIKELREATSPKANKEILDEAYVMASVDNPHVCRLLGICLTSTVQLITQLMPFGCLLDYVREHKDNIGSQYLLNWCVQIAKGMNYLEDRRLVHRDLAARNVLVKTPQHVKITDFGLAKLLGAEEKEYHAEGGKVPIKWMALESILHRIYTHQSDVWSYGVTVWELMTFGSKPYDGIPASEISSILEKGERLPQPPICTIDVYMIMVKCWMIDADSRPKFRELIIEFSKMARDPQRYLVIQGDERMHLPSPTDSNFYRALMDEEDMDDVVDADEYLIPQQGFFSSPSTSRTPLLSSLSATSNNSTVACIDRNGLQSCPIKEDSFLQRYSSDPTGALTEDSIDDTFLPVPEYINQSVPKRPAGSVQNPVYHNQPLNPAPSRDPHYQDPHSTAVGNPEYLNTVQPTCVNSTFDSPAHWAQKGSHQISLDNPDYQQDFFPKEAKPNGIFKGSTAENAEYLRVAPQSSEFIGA
Chain of ErbB2 V777L (P04626 23-1255 V777L): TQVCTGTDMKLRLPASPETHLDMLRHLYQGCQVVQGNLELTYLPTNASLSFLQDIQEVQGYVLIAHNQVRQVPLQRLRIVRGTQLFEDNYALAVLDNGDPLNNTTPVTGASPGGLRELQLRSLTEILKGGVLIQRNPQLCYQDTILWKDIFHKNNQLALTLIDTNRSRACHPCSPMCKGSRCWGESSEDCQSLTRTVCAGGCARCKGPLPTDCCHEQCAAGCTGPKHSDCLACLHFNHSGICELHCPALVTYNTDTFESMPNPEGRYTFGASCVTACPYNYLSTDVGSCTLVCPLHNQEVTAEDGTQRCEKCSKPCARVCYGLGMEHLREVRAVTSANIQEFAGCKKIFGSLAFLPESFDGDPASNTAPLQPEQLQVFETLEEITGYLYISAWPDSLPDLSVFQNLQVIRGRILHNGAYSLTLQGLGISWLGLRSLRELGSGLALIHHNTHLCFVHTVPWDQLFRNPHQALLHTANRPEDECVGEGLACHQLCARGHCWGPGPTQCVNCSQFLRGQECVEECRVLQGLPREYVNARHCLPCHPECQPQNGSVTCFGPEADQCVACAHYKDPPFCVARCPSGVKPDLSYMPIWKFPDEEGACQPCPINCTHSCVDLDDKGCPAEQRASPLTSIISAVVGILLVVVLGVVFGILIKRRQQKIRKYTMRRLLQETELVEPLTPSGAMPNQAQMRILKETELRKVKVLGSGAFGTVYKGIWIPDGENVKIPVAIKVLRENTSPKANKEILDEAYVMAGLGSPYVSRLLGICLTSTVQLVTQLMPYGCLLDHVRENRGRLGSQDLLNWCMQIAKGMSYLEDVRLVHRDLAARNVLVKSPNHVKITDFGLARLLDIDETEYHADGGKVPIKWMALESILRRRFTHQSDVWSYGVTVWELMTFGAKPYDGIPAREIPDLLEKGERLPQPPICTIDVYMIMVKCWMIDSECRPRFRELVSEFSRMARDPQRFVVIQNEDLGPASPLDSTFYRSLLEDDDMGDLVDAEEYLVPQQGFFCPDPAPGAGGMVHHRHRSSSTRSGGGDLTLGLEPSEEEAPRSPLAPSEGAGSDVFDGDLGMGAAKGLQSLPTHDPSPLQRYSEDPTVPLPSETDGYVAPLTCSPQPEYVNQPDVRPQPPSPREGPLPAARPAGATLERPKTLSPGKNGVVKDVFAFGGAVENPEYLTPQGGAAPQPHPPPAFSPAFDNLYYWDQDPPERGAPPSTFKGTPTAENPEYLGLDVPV

In the case of `C=C(F)C(=O)N1CC(F)(F)C12CN(c1ncc3ncnc(Nc4ccc(Oc5ccc6c(c5)nnn6C)c(C)c4)c3n1)C2` [Compound 209, 1-(3,3-difluoro-6-(8-((3-methyl-4-((1-methyl-1H-benzo[d][1,2,3]triazol-5-yl)oxy)phenyl)amino)pyrimido [5,4-d]pyrimidin-2-yl)-1,6-diazaspiro[3.3]heptan-1-yl)-2-fluoroprop-2-en-1-one], the IC50 on ErbB2 V777L and on EGFR WT was 50 to 100 nM in each case.
Regarding `C=CC(=O)N(C)[C@@H]1CCCN(c2ncc3ncnc(Nc4ccc(Oc5ccc6c(c5)nnn6C)c(C)c4)c3n2)C1` [Compound 129, (R)-N-methyl-N-(1-(8-((3-methyl-4-((1-methyl-1H-benzo[d][1,2,3]triazol-5-yl)oxy)phenyl)amino)pyrimido[5,4-d]pyrimidin-2-y1)piperidin-3-yl)acrylamide], the values for the IC50 at ErbB2 V777L and on EGFR WT were 50 to 100 nM and 100 to 500 nM, respectively.
Regarding `C=CC(=O)N1C[C@@H]2C[C@H]1CN(c1ncc3ncnc(Nc4ccc(Oc5cc(F)c6c(c5)ncn6C)c(C)c4F)c3n1)C2` [Compound 175, 1-((1R,5S)-3-(8-((2-fluoro-4-((7-fluoro-1-methyl-1H-benzo[d]imidazol-5-y1)oxy)-3-methylphenyl)amino)pyrimido[5,4-d]pyrimidin-2-yl)-3,6-diazabicyclo[3.2.1]octan-6-yl)prop-2-en-1-one], the half-inhibitory concentration (IC50) at ErbB2 V777L was in the range of 100 to 500 nM; against EGFR WT, 50 to 100 nM.
For `C=CC(=O)N1CCCN(c2ncc3ncnc(Nc4ccc(Oc5cc(F)c6c(c5)ncn6C)c(C)c4F)c3n2)CC1` [Compound 112, 1-(4-(8-((2-fluoro-4-((7-fluoro-1-methyl-1H-benzo[d]imidazol-5-yl)oxy)-3-methylphenyl)amino)pyrimido[5,4-d]pyrimidin-2-yl)-1,4-diazepan-1-yl)prop-2-en-1-one] the same measures were 50 to 100 nM and under 50 nM.
Regarding `Cc1cc(Nc2ncnc3cnc(N4CCN(C(=O)/C=C/CO)CC4)nc23)ccc1Oc1ccc2c(c1)nnn2C` [Compound 57, (E)-4-hydroxy-1-(4-(8-((3-methyl-4-((1-methyl-1H-benzo[d][1,2,3]triazol-5-yl)oxy)phenyl)amino)pyrimido [5,4-d]pyrimidin-2-yl)piperazin-1-yl)but-2-en-1-one], the concentration for half-maximal inhibition (IC50) at ErbB2 V777L and against EGFR WT was 100 to 500 nM throughout.
Turning to `C=CC(=O)N1CCN(c2ncc3ncnc(Nc4ccc(Oc5ccc6c(c5)nnn6C)c(C)c4F)c3n2)C2CC21` (centres unmarked) [Compound 48, 1-(5-(8-((2-fluoro-3-methyl-4-((1-methyl-1H-benzo[d][1,2,3]triazol-5-yl)oxy)phenyl)amino)pyrimido[5,4-d]pyrimidin-2-yl)-2,5-diazabicyclo[4.1.0]heptan-2-yl)prop-2-en-1-one], the IC50 against ErbB2 V777L and against EGFR WT was under 50 nM throughout.
For the molecule `C=CC(=O)N[C@]1(C)CCN(c2ccc3ncnc(Nc4ccc(Oc5ccc6c(c5)nnn6C)c(C)c4F)c3n2)C1` [Compound 270, (R)-N-(1-(4-((2-fluoro-3-methyl-4-((1-methyl-1H-benzo[d][1,2,3]triazol-5-yl)oxy)phenyl)amino)pyrido[3,2-d]pyrimidin-6-yl)-3-methylpyrrolidin-3-yl)acrylamide], the IC50 on ErbB2 V777L fell in the range of 50 to 100 nM; on EGFR WT it was 100 to 500 nM.
For `C=CC(=O)N1CCN(c2ccc3ncnc(Nc4cc(C)c(Oc5ccc6c(c5)nnn6C)cc4F)c3n2)CC1` [Compound 94, 1-(4-(4-((2-fluoro-5-methyl-4-((1-methyl-1H-benzo[d][1,2,3]triazol-5-yl)oxy)phenyl)amino)pyrido[3,2-d]pyrimidin-6-yl)piperazin-1-yl)prop-2-en-1-one] the same measures were 50 to 100 nM and 100 to 500 nM.
For `C=CC(=O)N1CCN(c2ncc3ncnc(Nc4ccc(Oc5ccc6c(c5)nnn6C)c(CC)c4)c3n2)CC1` [Compound 114, 1-(4-(8-((3-ethyl-4-((1-methyl-1H-benzo[d][1,2,3]triazol-5-yl)oxy)phenyl)amino)pyrimido[5,4-d]pyrimidin-2-yl)piperazin-1-yl)prop-2-en-1-one] the same measures were 100 to 500 nM and 100 to 500 nM.
For `C=CC(=O)N1CCN(c2ncc3ncnc(Nc4ccc(Oc5ccc6c(c5)ncn6C(F)F)c(C)c4F)c3n2)C[C@H]1C` [Compound 148, (R)-1-(4-(8-((4-((1-(difluoromethyl)-1H-benzo[d]imidazol-5-yl)oxy)-2-fluoro-3-methylphenyl)amino)pyrimido[5,4-d]pyrimidin-2-yl)-2-methylpiperazin-1-yl)prop-2-en-1-one] the same measures were 50 to 100 nM and 100 to 500 nM.
Consider `C=CC(=O)N1CC2CC1CN(c1ncc3ncnc(Nc4ccc(Oc5cc(F)c6c(c5)ncn6C)c(C)c4F)c3n1)C2` (centres unmarked) [Compound 147, 1-(3-(8-((2-fluoro-4-((7-fluoro-1-methyl-1H-benzo[d]imidazol-5-yl)oxy)-3-methylphenyl)amino)pyrimido[5,4-d]pyrimidin-2-y1)-3,6-diazabicyclo[3.2.1]octan-6-yl)prop-2-en-1-one], for which the IC50 against ErbB2 V777L is 50 to 100 nM; on EGFR WT, under 50 nM.
For the molecule `C=CC(=O)N1CCN(c2ncc3ncnc(Nc4c(F)cc(Oc5ccc6c(c5)nnn6C)cc4F)c3n2)CC1` [Compound 20, 1-(4-(8-((2,6-difluoro-4-((1-methyl-1H-benzo[d][1,2,3]triazol-5-yl)oxy)phenyl)amino)pyrimido[5,4-d]pyrimidin-2-yl)piperazin-1-yl)prop-2-en-1-one], the figures for the IC50 at ErbB2 V777L and on EGFR WT were 500 to 1000 nM and 100 to 500 nM, respectively.
Turning to `C=CC(=O)N1C2C=C(c3ccc4ncnc(Nc5ccc(Oc6ccc7c(c6)nnn7C)c(C)c5)c4n3)CC1CCC2` (centres unmarked) [Compound 405, 1-(3-(4-((3-methyl-4-((1-methyl-1H-benzo[d][1,2,3]triazol-5-yl)oxy)phenyl)amino)pyrido[3,2-d]pyrimidin-6-yl)-9-azabicyclo[3.3.1]non-2-en-9-yl)prop-2-en-1-one], the IC50 at ErbB2 V777L was in the range of 100 to 500 nM; against EGFR WT it was 500 to 1000 nM.
Turning to `C=CC(=O)N1CC2CC1CN2c1ncc2ncnc(Nc3ccc(Oc4ccc5c(c4)nnn5C)c(C)c3)c2n1` (centres unmarked) [Compound 61, 1-(5-(8-((3-methyl-4-((1-methyl-1H-benzo[d][1,2,3]triazol-5-yl)oxy)phenyl)amino)pyrimido[5,4-d]pyrimidin-2-yl)-2,5-diazabicyclo[2.2.1]heptan-2-yl)prop-2-en-1-one], the IC50 on ErbB2 V777L is 50 to 100 nM; at EGFR WT, under 50 nM.
With `C=CC(=O)N1CCC2(CCN(c3ccc4ncnc(Nc5ccc(Oc6ccc7c(c6)nnn7C)c(C)c5)c4n3)C2)C1` (centres unmarked) [Compound 311, 1-(7-(4-((3-methyl-4-((1-methyl-1H-benzo[d][1,2,3]triazol-5-yl)oxy)phenyl)amino)pyrido[3,2-d]pyrimidin-6-yl)-2,7-diazaspiro[4.4]nonan-2-yl)prop-2-en-1-one], the IC50 was 500 to 1000 nM at ErbB2 V777L and at least 1000 nM against EGFR WT.
For `C=CC(=O)N1CCN(c2ncc3ncnc(Nc4ccc(Oc5cnc6c(c5)ncn6C)c(C)c4F)c3n2)C[C@H]1C` [Compound 158, (R)-1-(4-(8-((2-fluoro-3-methyl-4-((3-methyl-3H-imidazo[4,5-b]pyridin-6-yl)oxy)phenyl)amino)pyrimido[5,4-d]pyrimidin-2-y1)-2-methylpiperazin-1-yl)prop-2-en-1-one] the same measures were 100 to 500 nM and 100 to 500 nM.
